From patent US6737383B1, “Herbicidal oxadiazolidines” (priority 1999, dated 2004)

Assays:
bedstraw = test: Test B pre/postemergence bedstraw; type: in vivo, Galium aparine
Summary of the method: (§1)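 Test chemicals in a non-phytotoxic solvent mixture with surfactant were sprayed preemergence onto planted seeds and postemergence onto plants 2 to 18 cm tall (1- to 4-leaf stage). After twelve to sixteen days in a greenhouse, injury was visually rated against untreated controls from 0 (no effect) to 10 (complete control).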

cocklebur = test: Test B pre/postemergence cocklebur; type: in vivo, Xanthium strumarium
Summary of the method: as §1

soybean = test: Test B pre/postemergence soybean; type: in vivo, Glycine max
Summary of the method: as §1

blackgrass = test: Test B pre/postemergence blackgrass; type: in vivo, Alopecurus myosuroides
Summary of the method: as §1

morningglory = test: Test B pre/postemergence morningglory; type: in vivo, Ipomoea hederacea
Summary of the method: as §1

wild oat = test: Test B pre/postemergence wild oat; type: in vivo, Avena fatua
Summary of the method: as §1

sugar beet = test: Test B pre/postemergence sugar beet; type: in vivo, Beta vulgaris
Summary of the method: as §1

corn = test: Test B pre/postemergence corn; type: in vivo, Zea mays
Summary of the method: as §1

smallflower flatsedge = test: Test B flood test smallflower flatsedge; type: in vivo, Cyperus difformis
Summary of the method: (§2)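 Flood test on plants grown to the 2-leaf stage; treated plants kept in greenhouse twelve to sixteen days, then visually rated against controls on a 0 (no effect) to 10 (complete control) scale.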

pigweed = test: Test B pre/postemergence pigweed; type: in vivo, Amaranthus retroflexus
Summary of the method: as §1

rape = test: Test B pre/postemergence rape; type: in vivo, Brassica napus
Summary of the method: as §1

purple nutsedge = test: Test B pre/postemergence purple nutsedge; type: in vivo, Cyperus rotundus
Summary of the method: as §1

surinam grass = test: Test B pre/postemergence surinam grass; type: in vivo, Brachiaria decumbens
Summary of the method: as §1

velvetleaf = test: Test B pre/postemergence velvetleaf; type: in vivo, Abutilon theophrasti
Summary of the method: as §1

bamyardgrass = test: Test B flood test barnyardgrass; type: in vivo, Echinochloa crus-galli
Summary of the method: as §2

rice = test: Test B flood test rice; type: in vivo, Oryza sativa
Summary of the method: as §2

[1] = Preemergence, Rate 250 g/ha, scale of 0 to 10 where 0 is no effect and 10 is complete control
[2] = Preemergence, Rate 500 g/ha, scale of 0 to 10 where 0 is no effect and 10 is complete control
[3] = Rate 62 g/ha, Postemergence, scale 0 to 10 (0 no effect, 10 complete control)
[4] = Rate 125 g/ha, Postemergence, scale of 0 to 10 where 0 is no effect and 10 is complete control
[5] = Rate 125 g/ha, Preemergence, scale of 0 to 10 where 0 is no effect and 10 is complete control
[6] = Preemergence, Rate 62 g/ha, scale of 0 to 10 where 0 is no effect and 10 is complete control
[7] = Rate 250 g/ha, Postemergence, scale of 0 to 10 where 0 is no effect and 10 is complete control
[8] = Rate 500 g/ha, Postemergence, scale 0 to 10, 0 no effect, 10 complete control
[9] = Rate 62 g/ha, headed Pre-emergence (flood test species), scale 0 to 10 (0 no effect, 10 complete control)
[10] = Rate 125 g/ha, Pre-emergence, flood test species, scale 0 to 10 where 0 is no effect and 10 is complete control
[11] = Rate 250 g/ha, Pre-emergence, flood-test species, scale 0 to 10, 0 is no effect, 10 is complete control
[12] = Rate 500 g/ha, Pre-emergence, flood test species, scale 0 to 10 (0 no effect, 10 complete control)

CCN(CC)C(=O)n1oc(=O)n(C2CC2)c1=O [Compound 297]
0: Bedstraw plant response rating (bedstraw; [1]) | Plant response rating, Bedstraw (bedstraw; [2]) | Bedstraw plant response rating (bedstraw; [3]) | Bedstraw plant response rating (bedstraw; [4]) | Bedstraw plant response rating (bedstraw; [5]) | Cocklebur plant response rating (cocklebur; [6]) | Cocklebur plant response rating (cocklebur; [1]) | Plant response rating, Cocklebur (cocklebur; [2]) | Cocklebur plant response rating (cocklebur; [3]) | Cocklebur plant response rating (cocklebur; [4]) | Cocklebur plant response rating (cocklebur; [5]) | Plant response rating, Cocklebur (cocklebur; [7]) | Cocklebur plant response rating (cocklebur; [8]) | Soybean plant response rating (soybean; [6]) | Soybean plant response rating (soybean; [1]) | Plant response rating, Soybean (soybean; [2]) | Soybean plant response rating (soybean; [5]) | Blackgrass plant response rating (blackgrass; [6]) | Blackgrass plant response rating (blackgrass; [1]) | Plant response rating, Blackgrass (blackgrass; [2]) | Blackgrass plant response rating (blackgrass; [3]) | Blackgrass plant response rating (blackgrass; [4]) | Blackgrass plant response rating (blackgrass; [5]) | Plant response rating, Blackgrass (blackgrass; [7]) | Blackgrass plant response rating (blackgrass; [8]) | Morningglory plant response rating (morningglory; [6]) | Morningglory plant response rating (morningglory; [1]) | Plant response rating, Morningglory (morningglory; [2]) | Morningglory plant response rating (morningglory; [3]) | Morningglory plant response rating (morningglory; [4]) | Morningglory plant response rating (morningglory; [5]) | Plant response rating, Morningglory (morningglory; [7]) | Wild oats plant response rating (wild oat; [6]) | Wild oats plant response rating (wild oat; [1]) | Plant response rating, Wild oats (wild oat; [2]) | Wild oats plant response rating (wild oat; [3]) | Wild oats plant response rating (wild oat; [4]) | Plant response rating, Wild oats (wild oat; [7]) | Sugarbeets plant response rating (sugar beet; [6]) | Sugarbeets plant response rating (sugar beet; [1]) | Plant response rating, Sugarbeets (sugar beet; [2]) | Sugarbeets plant response rating (sugar beet; [3]) | Sugarbeets plant response rating (sugar beet; [4]) | Sugarbeets plant response rating (sugar beet; [5]) | Plant response rating, Sugarbeets (sugar beet; [7]) | Corn plant response rating (corn; [6]) | Corn plant response rating (corn; [1]) | Plant response rating, Corn (corn; [2]) | Corn plant response rating (corn; [3]) | Corn plant response rating (corn; [4]) | Corn plant response rating (corn; [5]) | Plant response rating, Corn (corn; [7]) | Corn plant response rating (corn; [8]) | S. Flatsedge plant response rating (smallflower flatsedge; [9]) | S. Flatsedge plant response rating (smallflower flatsedge; [10]) | Redroot pigweed plant response rating (pigweed; [6]) | Redroot pigweed plant response rating (pigweed; [1]) | Plant response rating, Redroot pigweed (pigweed; [2]) | Redroot pigweed plant response rating (pigweed; [3]) | Redroot pigweed plant response rating (pigweed; [4]) | Redroot pigweed plant response rating (pigweed; [5]) | Plant response rating, Redroot pigweed (pigweed; [7]) | Rape plant response rating (rape; [6]) | Rape plant response rating (rape; [1]) | Plant response rating, Rape (rape; [2]) | Rape plant response rating (rape; [3]) | Rape plant response rating (rape; [4]) | Rape plant response rating (rape; [5]) | Plant response rating, Rape (rape; [7]) | Nutsedge plant response rating (purple nutsedge; [1]) | Plant response rating, Nutsedge (purple nutsedge; [2]) | Nutsedge plant response rating (purple nutsedge; [3]) | Nutsedge plant response rating (purple nutsedge; [4]) | Nutsedge plant response rating (purple nutsedge; [5]) | Plant response rating, Nutsedge (purple nutsedge; [7]) | B. signalgrass plant response rating (surinam grass; [6]) | B. signalgrass plant response rating (surinam grass; [1]) | Plant response rating, B. signalgrass (surinam grass; [2]) | B. signalgrass plant response rating (surinam grass; [3]) | B. signalgrass plant response rating (surinam grass; [4]) | B. signalgrass plant response rating (surinam grass; [5]) | Plant response rating, B. signalgrass (surinam grass; [7]) | B. signalgrass plant response rating (surinam grass; [8]) | Velvetleaf plant response rating (velvetleaf; [6]) | Velvetleaf plant response rating (velvetleaf; [1]) | Plant response rating, Velvetleaf (velvetleaf; [2]) | Velvetleaf plant response rating (velvetleaf; [3]) | Velvetleaf plant response rating (velvetleaf; [4]) | Velvetleaf plant response rating (velvetleaf; [5]) | Plant response rating, Velvetleaf (velvetleaf; [7]) | Barnyardgrass plant response rating (bamyardgrass; [9]) | Barnyardgrass plant response rating (bamyardgrass; [10]) | Barnyardgrass plant response rating (bamyardgrass; [11]) | Barnyardgrass plant response rating (bamyardgrass; [12]) | Rice plant response rating (rice; [9]) | Rice plant response rating (rice; [10]) | Rice plant response rating (rice; [11]) | Rice plant response rating (rice; [12])
2: Soybean plant response rating (soybean; [3])
3: Soybean plant response rating (soybean; [4]) | Plant response rating, Soybean (soybean; [7]) | S. Flatsedge plant response rating (smallflower flatsedge; [11]) | S. Flatsedge plant response rating (smallflower flatsedge; [12])
